According to PubChem BioAssay (NCI):
“And” between values parts separate entries of the source, which are not always exact repeats. Equal entries are not always repeated.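 Method: 48-hour compound exposure of cells in 96-well plates, five concentrations, linear interpolation of endpoints. At the GI50, growth is halved. At the TGI there is no net growth.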

What was measured:
Assay in all cases: NCI-60 cell line screen, 48 h
[1] = test system: CAKI-1 renal
[2] = test system: MALME-3M melanoma
[3] = test system: SW-620 colon
[4] = test system: TK-10 renal
[5] = test system: EKVX NSCLC
[6] = test system: NCI-H460 lung
[7] = test system: MCF7 breast
[8] = test system: SN12C renal
[9] = test system: SF-268 CNS
[10] = test system: OVCAR-8 ovarian

Structure (SMILES) | GI50 [1] | TGI [1] | GI50 [2] | TGI [2] | GI50 [3] | TGI [3] | GI50 [4] | TGI [4] | GI50 [5] | TGI [5] | GI50 [6] | TGI [6] | GI50 [7] | TGI [7] | GI50 [8] | TGI [8] | GI50 [9] | TGI [9] | GI50 [10] | TGI [10]
CC1/C=C/C=C/C=C/C=C/C=C/C=C/C=C/C(O[C@@H]2O[C@H](C)[C@H](O)[C@@H](O)[C@@H]2N)CC(O)C(C(=O)O)C(O)CC(=O)CC(O)CC(O)CC(O)CC(=O)CCCC(=O)CC(=O)OC1C(C)CC(C)C(O)CC(=O)c1ccc(N)cc1 (some centres undefined) | 0.0583 µM and 0.186 µM | 0.107 µM and 0.357 µM | 0.0543 µM and 0.177 µM | 0.104 µM and 0.365 µM | 0.0588 µM and 0.198 µM | 0.109 µM and 0.43 µM | 0.0573 µM and 0.315 µM | 0.104 µM and 0.983 µM | 0.0644 µM and 0.221 µM | 0.126 µM and 0.484 µM | 0.0611 µM and 0.229 µM | 0.11 µM and 0.633 µM | 0.0797 µM and 0.422 µM | 0.173 µM and 1.59 µM | 0.0586 µM and 0.174 µM | 0.114 µM and 0.317 µM | 0.0565 µM and 0.202 µM | 0.102 µM and 0.409 µM | 0.0701 µM and 0.347 µM | 0.152 µM and 1.23 µM
O=C(O)C1C(C(=O)Nc2ccc3c(c2)Cc2ccccc2-3)C2(Cl)C(Cl)=C(Cl)C1(Cl)C2(Cl)Cl (centres undefined) | – | > 100 µM | – | 44.6 µM | – | 64.5 µM | – | 68.1 µM | – | 97.6 µM | – | – | – | 62.2 µM | – | > 100 µM | – | 64.5 µM | – | 43 µM
ClC1=C(Cl)C(Cl)=C(Cl)C1=C/C=C/c1ccccc1 | 0.198 µM | 0.561 µM | 0.167 µM | 0.499 µM | 0.299 µM | 0.869 µM | 0.562 µM | 2.04 µM | 0.215 µM | 1.23 µM | 0.326 µM | 2.3 µM | 0.139 µM | 0.664 µM | 0.407 µM | 2.15 µM | 0.261 µM | 1.51 µM | 0.266 µM | 1.92 µM
CCSCC(N)C(=O)O (centres undefined) | – | > 100 µM | – | > 100 µM | – | > 100 µM | – | > 100 µM | – | > 100 µM | – | > 100 µM | – | > 100 µM | – | > 100 µM | – | > 100 µM | – | > 100 µM
CC(C)[C@@]12C[C@@H](OC(=O)[C@H]3CO3)[C@@](C)(O1)[C@@H]1CC[C@@H](C)[C@H]1[C@@H]2OC(=O)/C=C/c1ccccc1 | 6.83 µM | > 100 µM | 13.9 µM | 30 µM | 29.9 µM | > 100 µM | 33.9 µM | > 100 µM | 16.3 µM | > 75.6 µM | 17.2 µM | 42.5 µM | 9.33 µM | > 100 µM | 11.9 µM | 41.2 µM | 0.777 µM | > 81.2 µM | 0.434 µM | > 52.4 µM
CN(C)c1ccc(/C=C(/NC(=O)c2ccccc2)c2nc3ccc(Cl)cc3[nH]2)cc1 | – | > 100 µM | – | > 82.9 µM | – | > 60.5 µM | – | > 100 µM | – | > 100 µM | – | > 100 µM | 24.5 µM | > 100 µM | – | > 100 µM | – | > 100 µM | – | > 100 µM
CN1CCCNc2c(c(=O)c2=O)NCCCN(C)CCCNc2c(c(=O)c2=O)NCCCN(C)CCCNc2c(c(=O)c2=O)NCCCN(C)CCCNc2c(c(=O)c2=O)NCCCN(C)CCCNc2c(c(=O)c2=O)NCCCN(C)CCCNc2c(c(=O)c2=O)NCCCN(C)CCCNc2c(c(=O)c2=O)NCCC1 | 6.14 µM | 13.1 µM | 1.11 µM | 3.54 µM | 4.63 µM | 25.3 µM | 1.71 µM | 8.24 µM | 5.54 µM | 15.8 µM | 3.9 µM | > 50 µM | 6.52 µM | 19.5 µM | 1.34 µM | 14.2 µM | 1.82 µM | 18.3 µM | 2.48 µM | 46.8 µM
COc1ccccc1-n1c(-c2cc(O)ccc2C)cn2c3c(=O)[nH]c(=O)n(C)c3nc12 | 2.95 µM | 7.05 µM | > 100 µM | > 100 µM | > 100 µM | > 100 µM | 13.3 µM | 48.7 µM | 10.1 µM | > 100 µM | > 100 µM | > 100 µM | > 100 µM | > 100 µM | 4.85 µM | > 100 µM | 5.07 µM | > 100 µM | 10.9 µM | > 100 µM
COc1cc(NCCCCN=C(N)NC(N)=NC(C)C)c2ncccc2c1 | > 100 µM | > 100 µM | 1.14 µM | 4.6 µM | 5.76 µM | 22.2 µM | 10.8 µM | 43.3 µM | 5.83 µM | > 62 µM | 5.97 µM | 20 µM | 0.0516 µM | 0.327 µM | 5.21 µM | 28.5 µM | 3.83 µM | 17.9 µM | 8.18 µM | 27.7 µM
CC(C)(C)[Si](C)(C)OCC1OC(n2cnc3c(NC(=O)c4ccccc4)ncnc32)CC1O (centres undefined) | – | > 100 µM | – | 60.7 µM | – | > 100 µM | – | > 100 µM | – | > 100 µM | – | > 100 µM | – | > 100 µM | – | > 100 µM | – | > 100 µM | – | > 100 µM
COc1cc2c(cc1OCCOS(C)(=O)=O)N=C[C@@H]1CCCN1C2=O | 17.7 µM | 32.1 µM | 13.6 µM | 31.6 µM | 14.6 µM | 38.4 µM | 18.1 µM | 33.2 µM | – | > 100 µM | – | > 100 µM | – | > 100 µM | – | > 100 µM | – | > 100 µM | – | > 100 µM
NC(=O)C1=NNc2ccccc2C(=O)N1c1ccccc1 | – | > 100 µM | – | > 100 µM | – | > 100 µM | – | > 100 µM | – | > 100 µM | – | > 100 µM | – | > 100 µM | – | > 100 µM | – | > 100 µM | – | > 100 µM
CSc1cnn(CCC#N)c(=O)n1 | – | > 100 µM | – | > 100 µM | – | > 100 µM | – | > 100 µM | – | > 100 µM | – | – | – | > 100 µM | – | > 100 µM | – | > 100 µM | – | > 100 µM
CCOc1ccc([C@@H]2[C@@H](Oc3ccccc3)C(=O)N2c2cc(OC)c(OC)c(OC)c2)cc1 | – | – | > 100 µM | > 100 µM | 0.0536 µM | > 100 µM | 16 µM | > 100 µM | 0.0937 µM | > 100 µM | 0.285 µM | > 100 µM | 0.0431 µM | > 100 µM | 0.263 µM | > 100 µM | 0.0975 µM | > 100 µM | 0.0463 µM | > 100 µM
CC(=O)c1ccc(NC(=O)CSc2nnc(-c3cc(-c4ccc(C)cc4)nc4ccccc34)o2)cc1 | – | – | 2.67 µM | 8.34 µM | 3.24 µM | > 100 µM | 1.99 µM | 4.89 µM | 3.13 µM | > 100 µM | 2.36 µM | 6.04 µM | 2.69 µM | > 100 µM | 2.15 µM | 5.45 µM | 3.12 µM | > 100 µM | 2.28 µM | 4.9 µM
